Like-named read-outs stand apart in the source and are kept apart here.

Assay [1] deals with Human myeloid monocytic leukemia cell line (MV-4-11). The assay is described as follows: Inhibition of MV-4-11 cell proliferation (CellTiter luminescent viability). It counts as cell-based. To be noted: for inhibition at 0.01 µM / inhibition at 0.5 µM: Homo sapiens, MV4-11; for inhibition at 0.01 µM: read-out: Inhibition Rate at 10 nM (%); for inhibition at 0.5 µM: read-out: Inhibition Rate at 500 nM (%). Summed up: (§1)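 Cells are seeded in 96-well plates, cultured at 37 °C, 5% CO2, and treated next day with 5-fold serial compound dilutions (stock series from 2000 μM; 0.5 μL into 100 μL medium). Viability is read by CellTiter-Meiluncell luminescence after the set exposure, and IC50 is taken from growth-inhibition curves.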

For assay [2], the system named is Human diffuse large B-cell lymphoma cell line (WSU-DLCL2). Kind of assay: Inhibition of WSU-DLCL2 cell proliferation (CellTiter luminescent viability). It is filed as cell-based. To be noted: for inhibition at 0.01 µM / inhibition at 0.5 µM: Homo sapiens; for inhibition at 0.01 µM: WSUDLCL2, 10 nM, read-out: Inhibition Rate at 10 nM (%); for inhibition at 0.5 µM: WSUDLCL2, 500 nM, read-out: Inhibition Rate at 500 nM (%). How it is done: (§2) The tumor cells used herein were cultured in a cell culture medium listed in table 3 at 37 °C in an incubator with 5% CO2. Prior to experimentation, all cell lines used were correctly identified by STR profiling, and tested negative for mycoplasma contamination using a mycoplasma detection kit through routine screenings.
(§3) The IC50 values of the compounds of the present disclosure (including the compounds in Table 1, Table 2, and Examples 1-468) were determined using the CellTiter-Meiluncell Luminescent Cell Viability Assay Kit from Dalian Meilun Biotech Co., Ltd. The detailed procedure is as follows: Tumor cells were seeded in 96-well cell culture plates at the densities specified in Table 4. On the following day, the test compounds of the present disclosure were subjected to serial dilution. The dilution can be performed according to one of the following two methods: • (1) The first dilution method: The test compounds of the present disclosure (including the compounds in Table 1, Table 2, and Examples 1-468) were subjected to 5-fold serial dilutions starting from a highest concentration of 2000 μM, resulting in a total of 9 concentrations from high to low (2000, 400, 80, 16, 3.2, 0.64, 0.128, 0.0256, 0.00512 μM). Subsequently, 0.5 μL of the test compound dilution was transferred into the 96-well plate containing the cells, with each well containing 100 μL of cell culture medium. […] Into the 96-well plate, the diluted test compounds and corresponding detection reagents were added, resulting in final test compound concentrations of 500 nM and 10 nM, respectively. The experimental procedure is described below using the diluted 2 μM test compound as an example.
(§4) 0.5 μL of the aforementioned diluted compound of the present disclosure (including the compounds in Table 1, Table 2, and Examples 1-468) was added to the seeded cells in 100 μL of medium, yielding a final test compound concentration of 10 nM. After the cells were treated with the compounds of the present disclosure for a specified period, the cell viability assay reagent was added to the culture medium according to the kit's instructions to determine cell viability. […] All controls were treated using the same procedure as the compounds of the present disclosure. The growth inhibition curves for the compounds of the present disclosure were plotted using Prism GraphPad software, and the IC50 values were calculated therefrom.

Assay [3] relates to Human Acute T Lymphoblastic Leukemia Cells (Molt-4). Kind of assay: Inhibition of Molt-4 cell proliferation (CellTiter luminescent viability). It is filed as cell-based. To be noted: for Inhibition Rate at 10 nM (%) / Inhibition Rate at 500 nM (%): Molt-4; for inhibition at 0.01 µM / inhibition at 0.5 µM: Homo sapiens, MOLT-4, Molt-4; for Inhibition Rate at 10 nM (%) / inhibition at 0.01 µM: 10 nM; for inhibition at 0.01 µM: read-out: Inhibition Rate at 10 nM (%); for Inhibition Rate at 500 nM (%) / inhibition at 0.5 µM: 500 nM; for inhibition at 0.5 µM: read-out: Inhibition Rate at 500 nM (%).

Another assay has as its target T1, BCL-2 (Homo sapiens, UniProt P10415).
T1 construct: expression of target proteins in cells; endogenous in cells
The assay is described as follows: Western blot degradation of BCL-2. It is filed as cell-based. To be noted: Molt-4 Cell; 24 hours. The protocol:
Conventional Western blot assay was performed to evaluate the effects of the compounds of the present disclosure on the expression of target proteins in cells.
(1) Cell Seeding and Protein Harvesting: The selected cells were processed according to the cell seeding procedure and protein harvesting procedure in Table II-2.
(2) To the collected supernatant, 5×SDS sample loading buffer was added, followed by denaturation at 95 °C for 5 minutes. The denatured samples were then separated by SDS-PAGE electrophoresis on a polyacrylamide gel. Proteins were transferred to a nitrocellulose membrane (0.45 μm NC membrane), blocked with blocking buffer at room temperature for 1 hour, and subjected to antibody incubation and development procedures according to the antibody manufacturer's instructions (Cell Signaling Technology).
Half-Maximal Degradation Concentration value (the drug concentration required for degrading proteins by 50%, abbreviated as DC50) reads method: comparing the grayscale values of Western blot bands from drug-treated samples with those from blank DMSO-treated controls, and identifying the drug concentration range at which the grayscale value is half that of the DMSO-treated control bands.
DC50 values can be calculated using ImageJ software to measure grayscale values of Western blot bands from drug-treated samples. The concentration-response curve is fitted to estimate the drug concentration corresponding to half the grayscale value.
Target protein remaining (%) refers to the percentage of target protein remaining in cells after treatment with protein degrader compounds.
Calculation method for target protein remaining (%): Use ImageJ software to measure grayscale values of Western blot bands from drug (protein degrader)-treated samples. The grayscale value of drug-treated bands is divided by that of internal control protein bands, and the resulting quotient is normalized to obtain the relative percentage of remaining target protein after protein degrader treatment.
Target protein degradation rate (%)=1−target protein remaining (%).
A general note: In western blotting, separated proteins are transferred to a membrane and probed.

The target of assay [4] is T2, human Cereblon WT GST-tagged protein (CRBN) (Homo sapiens, UniProt Q96SW2).
T2 construct: purchased CISBIO 64BDCRBNPEH
Kind of assay: CRBN binding by HTRF (Cereblon binding kit). Summed up:
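GST-tagged human Cereblon WT was incubated 3 h at room temperature with compound, thalidomide-Re tracer and Eu anti-GST antibody. Final compound concentrations were 10 to 0.00064 µM (7 points) or 2 and 0.5 µM. Inhibition rate was calculated from HTRF 665/620 nm ratios versus solvent and blank controls.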

The subject of assay [5] is Human large cell immunoblastic lymphoma cell line SR. Kind of assay: Inhibition of SR cell proliferation (CellTiter luminescent viability). It counts as cell-based. To be noted: 96 hours. Put shortly:
as §1

Assay [6] concerns Human non-small cell lung cancer cell line NCI-H2228. The assay is described as follows: Inhibition of H2228 cell proliferation (CellTiter luminescent viability). To be noted: Table IB2, ALK inhibitor-based, 96 hours. The protocol:
as §2, §3, §4

T2 sequence (Q96SW2 whole entry): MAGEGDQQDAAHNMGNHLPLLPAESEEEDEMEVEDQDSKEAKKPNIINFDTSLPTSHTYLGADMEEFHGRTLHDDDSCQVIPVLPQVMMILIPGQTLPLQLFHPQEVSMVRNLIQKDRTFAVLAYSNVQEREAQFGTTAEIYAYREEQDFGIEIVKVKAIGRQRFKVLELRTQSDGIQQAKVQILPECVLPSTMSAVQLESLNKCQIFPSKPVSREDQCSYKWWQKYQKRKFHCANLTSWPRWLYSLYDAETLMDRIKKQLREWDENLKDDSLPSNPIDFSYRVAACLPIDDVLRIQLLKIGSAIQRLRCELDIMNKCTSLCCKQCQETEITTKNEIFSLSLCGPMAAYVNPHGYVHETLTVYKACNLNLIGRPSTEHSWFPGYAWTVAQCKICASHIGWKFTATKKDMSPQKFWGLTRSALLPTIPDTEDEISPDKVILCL
T1 sequence (P10415 whole entry): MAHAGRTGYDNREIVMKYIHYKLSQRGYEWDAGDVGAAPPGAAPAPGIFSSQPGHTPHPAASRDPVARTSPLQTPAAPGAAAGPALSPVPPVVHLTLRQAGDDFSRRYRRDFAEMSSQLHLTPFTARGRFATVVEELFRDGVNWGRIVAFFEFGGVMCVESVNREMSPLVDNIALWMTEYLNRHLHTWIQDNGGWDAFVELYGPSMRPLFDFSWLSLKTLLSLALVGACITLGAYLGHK

With `CC(C)CCN1c2nc(Nc3cc(F)c(O)c(F)c3)ncc2N(C)C(=O)C1C` (stereo not shown) [BI-D1870, reference compound], the “Inhibition Rate at 10 nM (%)” value in assay [1] (MV-4-11, 10 nM) is given as “INa3 (−5% ≤ INa3 ≤ 0%)”; in assay [2] (10 nM), “INd1 (0% < INd1 < 5%)”; in assay [3] (Table IN2) it was “INb2 (−15% < INb2 < −5%)”; in assay [3] (Table IN3), “INc1 (0% < INcl < 5%)”. In addition, the “Inhibition Rate at 500 nM (%)” value in assay [1] (MV-4-11, 500 nM) is recorded as “INa7 (20% ≤ INa7 < 30%)”; in assay [2] (500 nM), “INd5 (20% ≤ INd5 < 30%)”; in assay [3] (Table IN2), “INb5 (5% ≤ INb5 < 10%)”; in assay [3] (Table IN3), “INc3 (10% ≤ INc3 < 15%)”.

In the case of `CC1(C)CCC(c2ccc(Cl)cc2)=C(CN2CCN(c3ccc(C(=O)NS(=O)(=O)c4ccc(N[C@H](CCN5CC6CCC(C5)N6Cc5ccc6c(c5)C(=O)N(N5CCC(=O)NC5=O)C6=O)CSc5ccccc5)c(S(=O)(=O)C(F)(F)F)c4)cc3)CC2)C1` [GT-07817, 4-(4-((4′-chloro-4,4-dimethyl-3,4,5,6-tetrahydro-[1,1′-biphenyl]-2-yl)methyl)piperazin-1-yl)-N-((4-(((2R)-4-(8-((2-(2,4-dioxotetrahydropyrimidin-1(2H)-yl)-1,3-dioxoisoindolin-5-yl)methyl)-3,8-diazabicyclo[3.2.1]octan-3-yl)-1-(phenylthio)butan-2-yl)amino)-3-((trifluoromethyl)sulfonyl)phenyl)sulfonyl)benzamide], the “Degradation of substrate protein BCL-2 (substrate protein remaining %)” value on BCL-2 is on record as “A (0%≤substrate protein remaining %≤80%)”.

In general, inhibition refers to the drop in the measured response relative to a control, in per cent. With `C[C@@H]1CNC(=O)c2cc3ccc(C(=O)Nc4cnn(Cc5ccc(N6CCN(Cc7ccc8c(c7)CN(N7CCC(=O)NC7=O)C8=O)CC6)cc5)c4)nc3n21` [GT-08149, (R)—N-(1-(4-(4-((2-(2,4-dioxotetrahydropyrimidin-1(2H)-yl)-1-oxoisoindolin-5-yl)methyl)piperazin-1-yl)benzyl)-1H-pyrazol-4-yl)-9-methyl-6-oxo-6,7,8,9-tetrahydropyrido[3′,2′: 4,5]pyrrolo[1,2-a]pyrazine-2-carboxamide], the inhibition at 0.01 µM was 5 to 10% in assay [1] (MV-4-11, 10 nM); 5 to 10% in assay [2]; -5 to 0% in assay [3] (Table IN2). The inhibition at 0.5 µM in assay [1] (MV-4-11, 500 nM) lay within 70 to 80%; in assay [2], 40 to 50%; in assay [3] (Table IN2), 30 to 50%; in assay [4] (0.5 μM, read-out: Inhibition Rate at 0.5 μM (%)) it was 20 to 30%. Moreover, the inhibition at 2 µM in assay [4] (2 μM, read-out: Inhibition Rate at 2 μM (%)) lay within 53 to 60%.

For the molecule `C[C@@H]1CNC(=O)c2cc3ccc(C(=O)Nc4cnn(Cc5ccc(N6CCC(N7CCN(Cc8ccc9c(c8)CN(N8CCC(=O)NC8=O)C9=O)CC7)CC6)cc5)c4)nc3n21` [GT-08151, (R)—N-(1-(4-(4-(4-((2-(2,4-dioxotetrahydropyrimidin-1(2H)-yl)-1-oxoisoindolin-5-yl)methyl)piperazin-1-yl)piperidin-1-yl)benzyl)-1H-pyrazol-4-yl)-9-methyl-6-oxo-6,7,8,9-tetrahydropyrido[3′,2′: 4,5]pyrrolo[1,2-a]pyrazine-2-carboxamide], the inhibition at 0.01 µM in assay [1] (MV-4-11, 10 nM) is 5 to 10%; in assay [2], 10 to 15%; in assay [3] (Table IN2) it was 0 to 5%; in assay [3] (Table IN3), 20 to 30%. In addition, the inhibition at 0.5 µM lay within 80 to 100% in assay [1] (MV-4-11, 500 nM); 50 to 60% in assay [2]; 30 to 50% in assay [3] (Table IN2); 10 to 15% in assay [3] (Table IN3).

For `CCc1cc2c(cc1N1CCC(N3CCOCC3)CC1)C(C)(C)c1[nH]c3cc(C#N)ccc3c1C2=O` [alectinib, Alectinib, reference compound], the inhibition at 0.01 µM fell in the range of 5 to 10% in assay [1] (Table IB2, ALK inhibitor-based, MV-4-11, 10 nM, 96 hours) and 5 to 10% in assay [6] (H2228, 10 nM, read-out: Inhibition Rate at 10 nM (%)). The inhibition at 0.5 µM lay within 30 to 45% in assay [1] (Table IB2, ALK inhibitor-based, MV-4-11, 500 nM, 96 hours) and 20 to 30% in assay [6] (H2228, 500 nM, read-out: Inhibition Rate at 500 nM (%)). Besides, the IC50 in assay [5] (Table IB1, ALK inhibitor-based, read-out: Inhibitory activity (IC50, nM) on tumor cell proliferation, SR) was in the range of 1000 to 5000 nM. Also, the “Inhibition Rate at 10 nM (%)” value in assay [5] (Table IB2, ALK inhibitor-based, 10 nM) is recorded as “IBa4 (15% ≤ IBa4 < 20%)”. In addition, the “Inhibition Rate at 500 nM (%)” value in assay [5] (Table IB2, ALK inhibitor-based, 500 nM) is recorded as “IBa10 (80% ≤ IBa10 < 90%)”. In addition, the “Inhibition Rate at 0.5 μM (%)” value in assay [4] (0.5 μM) was “a (0% < a ≤ 10%)”. The “Inhibition Rate at 2 μM (%)” value in assay [4] (2 μM) is on record as “a (0% < a ≤ 10%)”.

Source of the values: patent US20260364184A1, “COMPOUND BASED ON OXOISOINDOLINYL-SUBSTITUTED TETRAHYDROPYRIMIDINE-DIONE AND USE THEREOF” (GLUETACS THERAPEUTICS (SHANGHAI) CO., LTD., priority 2023, published 2026).
